# Results from ChEMBL document CHEMBL4715706, “Discovery of Benzotriazolo[4,3-d][1,4]diazepines as Orally Active Inhibitors of BET Bromodomains” (ACS Med Chem Lett, 2016).
# pEC50, pIC50: −log10 of the molar value.
# What was measured:
# [1] = Inhibition of BET in human THP-1 cells assessed as suppression of LPS-induced IL-6 release measured after 16 hrs by chemiluminescence ELISA; assay type: cell-based; details: THP-1, 16 h
# [2] = biological target: Bromodomain-containing protein 4 (Homo sapiens, UniProt O60885)
# Description: Inhibition of His/FLAG-tagged BRD4 BD1 (unknown origin) using histone H4-TetraAcetylated-biotin peptide as substrate incubated for 20 mins by AlphaLISA assay
# [3] = Protein binding in dog plasma
# [4] = Intrinsic clearance in mouse liver microsomes
# [5] = Protein binding in mouse plasma
# [6] = Protein binding in rat plasma; assay type: ADME, cell-free; details: read-out: PPB (converted)
# [7] = Intrinsic clearance in human liver microsomes
# [8] = Intrinsic clearance in dog liver microsomes
# [9] = Protein binding in human plasma; assay type: ADME, cell-free; details: read-out: PPB (converted)
# [10] = Intrinsic clearance in rat liver microsomes
Compound,pEC50 [1],pIC50 [2],fraction unbound [3],microsomal CLint [4] [µL/min/mg],fraction unbound [5],fraction unbound [6],microsomal CLint [7] [µL/min/mg],microsomal CLint [8] [µL/min/mg],fraction unbound [9],microsomal CLint [10] [µL/min/mg]
Cc1nnc2n1-c1ccccc1NCC2,–,4.21,–,–,–,–,–,–,–,–
Cc1noc2c1-c1ccc(-c3ccc(N)nc3)cc1N(c1ccc(C#N)cc1)CC2C (stereo not given),7.11,7.44,< 0.01,44,0.01,0.02,62,240,< 0.01,210
Cc1nnc2n1-c1ccccc1N(c1ccc(Cl)cc1)CC2C (stereo not given),6.54,6.46,0.05,110,0.04,0.04,24,83,0.03,25
Cc1noc2c1-c1ccc(-c3ccc(=O)n(C)c3)cc1N(c1ccc(C#N)cc1)CC2C (stereo not given),7.03,7.49,0.02,64,0.01,0.03,52,65,0.02,71
Cc1noc2c1-c1ccc(-c3cnn(CC(N)=O)c3)cc1N(c1ccc(C#N)cc1)CC2C (stereo not given),7.17,7.51,0.01,44,0.04,0.03,33,22,0.01,62
Cc1noc2c1-c1ccccc1N(c1ccc(C#N)cc1)CC2,5.34,6.26,< 0.01,22,< 0.01,< 0.01,17,18,< 0.01,24
Cc1nnc2n1-c1ccccc1N(c1ccc(Cl)cc1)C(C)C2 (stereo not given),5.51,5.92,–,–,–,0.03,25,–,0.02,65
Cc1nnc2n1-c1ccccc1N(c1ccc(Cl)cc1)CC2,5.64,5.81,0.05,500,0.07,0.05,154,390,0.05,126
Cc1noc2c1-c1ccc(-c3cnn(C)c3)cc1N(c1ccc(C#N)cc1)CC2CC(N)=O (stereo not given),6.09,6.51,0.02,37,0.04,0.06,27,69,0.01,22
Cc1noc2c1-c1ccc(-c3ccc(N)nc3)cc1N(c1ccc(C#N)cc1)CC2,6.42,7.19,< 0.01,101,< 0.01,0.01,86,165,< 0.01,195

# The remaining lines, values ahead:
pEC50 [1],pIC50 [2],fraction unbound [3],microsomal CLint [4] [µL/min/mg],fraction unbound [5],fraction unbound [6],microsomal CLint [7] [µL/min/mg],microsomal CLint [8] [µL/min/mg],fraction unbound [9],microsomal CLint [10] [µL/min/mg],Compound
6.35,6.55,–,–,–,–,–,–,–,–,Cc1ncnn1-c1ccc2c(c1)N(c1ccc(Cl)cc1)C[C@@H](C)c1nnc(C)n1-2
5.74,5.68,0.09,52,0.08,0.13,44,33,0.09,74,CCNC(=O)CC1CN(c2ccc(Cl)cc2)c2ccccc2-n2c(C)nnc21 (stereo not given)
7.39,7.13,–,–,–,–,–,–,–,–,Cc1nnc2n1-c1ccc(-n3cncn3)cc1N(c1ccc(Cl)cc1)C[C@H]2C
7.44,7.60,–,–,–,–,–,–,–,–,Cc1nnc2n1-c1ccc(-c3ccc(=O)n(C)c3)cc1N(c1ccc(Cl)cc1)C[C@H]2C
7.00,7.34,–,–,–,–,–,–,–,–,Cc1ccc(-c2ccc3c(c2)N(c2ccc(Cl)cc2)C[C@@H](C)c2nnc(C)n2-3)cn1
6.89,7.36,0.04,77,0.03,0.05,14,91,0.04,154,Cc1nnc2n1-c1ccc(-c3cnn(C)c3)cc1N(c1ccc(Cl)cc1)CC2
7.80,7.59,0.03,–,0.02,0.03,6.4,94,0.02,34,Cc1nnc2n1-c1ccc(-c3ccc(N)nc3)cc1N(c1ccc(Cl)cc1)CC2C (stereo not given)
6.10,6.10,–,–,–,–,–,–,–,–,Cc1nnc2n1-c1ccc(-c3ccc(N)nc3)cc1N(c1ccc(Cl)cc1)C[C@@H]2C
6.17,5.92,–,–,–,–,–,–,–,–,Cc1nnc2n1-c1ccc(S(C)(=O)=O)cc1N(c1ccc(Cl)cc1)C[C@H]2C
7.02,7.19,–,–,–,–,–,–,–,–,Cc1nnc2n1-c1ccc(C(N)=O)cc1N(c1ccc(Cl)cc1)C[C@H]2C
